# According to ChEMBL document CHEMBL1208792, “A novel series of [3.2.1] azabicyclic biaryl ethers as alpha3beta4 and alpha6/4beta4 nicotinic receptor agonists” (Bioorg Med Chem Lett, 2010):
# Tests used:
# [1] = biological target: Voltage-gated inwardly rectifying potassium channel KCNH2 (Homo sapiens, UniProt Q12809); assay: Displacement of [3H]dofetilide from human ERG expressed in HEK293 cells; format: cell-based
# [2] = biological target: Neuronal acetylcholine receptor; alpha4/beta2 (Homo sapiens, UniProt P17787+P43681); assay: Displacement of [3H]epibatidine from alpha4beta2 nicotinic receptor expressed in human HEK293 cells; format: cell-based
# [3] = Displacement of [3H]epibatidine from alpha6/4beta4 nicotinic receptor expressed in human HEK293 cells; format: cell-based
# [4] = biological target: Acetylcholine receptor; alpha1/beta1/delta/gamma (Homo sapiens, UniProt P02708+P07510+P11230+Q07001); assay: Binding affinity to alpha-1-beta-gamma-delta nicotinic receptor; format: protein-complex assay
# [5] = Agonist activity at human alpha6/4beta4 nicotinic receptor expressed in human HEK cells assessed as intracellular calcium […] by FLIPR relative to control; format: functional, HEK293
# [6] = biological target: T1, Neuronal acetylcholine receptor; alpha3/beta4 (Homo sapiens, UniProt P30926+P32297); assay: Displacement of [3H]epibatidine from alpha3beta4 nicotinic receptor expressed in human HEK293 cells; format: cell-based
# MDCK [7] = assay: (§1) Efflux ratio of permeability from basolateral to apical side over apical to basolateral side of MDCK cells expressing human MDR gene; format: ADME, cell-based, Canis lupus familiaris; details: dog, MDCK
# [8] = biological target: T1, Neuronal acetylcholine receptor; alpha3/beta4; assay: Agonist activity at alpha3beta4 nicotinic receptor expressed in human HEK cells assessed as intracellular calcium efflux by FLIPR
# [9] = biological target: Neuronal acetylcholine receptor subunit alpha-7 (Homo sapiens, UniProt P36544); assay: Displacement of [3H]epibatidine from alpha7 nicotinic receptor expressed in human HEK293 cells; format: cell-based
# MDCK [10] = assay: (§2) Apparent permeability from apical to basolateral side of MDCK cells; format: ADME, cell-based, Canis lupus familiaris; details: dog
# [11] = Agonist activity at human alpha6/4beta4 nicotinic receptor expressed in human HEK cells assessed as intracellular calcium […] by FLIPR; format: functional, cell-based, HEK293
# [12] = biological target: T1, Neuronal acetylcholine receptor; alpha3/beta4; assay: Agonist activity at alpha3beta4 nicotinic receptor expressed in human HEK cells assessed as intracellular calcium […] by FLIPR relative to control; format: functional, cell-based; details: HEK293
# [13] = system: human MDR (P-glycoprotein); assay: as §1; format: ADME, cell-based, Canis lupus familiaris; details: dog, MDCK-MDR1
# [14] = as §2; format: ADME, cell-based, Canis lupus familiaris; details: dog
# Mus musculus [15] = assay: Antipsychotic effect in sc dosed CD1 mouse assessed as prepulse inhibition; format: functional; details: read-out: MED
# Mus musculus [16] = assay: Antipsychotic effect in sc dosed CD1 mouse assessed as inhibition of mescaline-induced scratching behavioral response; format: functional
# [17] = Homo sapiens, HEK293, read-out: EC50
# Chain of Neuronal acetylcholine receptor subunit alpha-7 (P36544 whole entry): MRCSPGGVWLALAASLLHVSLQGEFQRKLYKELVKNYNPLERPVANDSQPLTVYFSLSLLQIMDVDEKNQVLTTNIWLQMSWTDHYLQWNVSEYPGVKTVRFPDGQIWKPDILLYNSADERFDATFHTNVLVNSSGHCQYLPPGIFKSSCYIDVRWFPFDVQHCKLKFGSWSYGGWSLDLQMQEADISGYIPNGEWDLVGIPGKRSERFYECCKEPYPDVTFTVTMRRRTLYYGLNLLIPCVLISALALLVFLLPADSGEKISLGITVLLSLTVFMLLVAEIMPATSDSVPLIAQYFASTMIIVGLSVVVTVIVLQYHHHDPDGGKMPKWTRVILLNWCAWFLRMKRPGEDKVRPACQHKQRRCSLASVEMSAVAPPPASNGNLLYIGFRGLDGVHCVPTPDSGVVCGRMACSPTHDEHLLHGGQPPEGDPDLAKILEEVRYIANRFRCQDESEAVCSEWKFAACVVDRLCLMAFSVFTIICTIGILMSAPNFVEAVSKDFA
# T1 sequence (P30926 whole entry): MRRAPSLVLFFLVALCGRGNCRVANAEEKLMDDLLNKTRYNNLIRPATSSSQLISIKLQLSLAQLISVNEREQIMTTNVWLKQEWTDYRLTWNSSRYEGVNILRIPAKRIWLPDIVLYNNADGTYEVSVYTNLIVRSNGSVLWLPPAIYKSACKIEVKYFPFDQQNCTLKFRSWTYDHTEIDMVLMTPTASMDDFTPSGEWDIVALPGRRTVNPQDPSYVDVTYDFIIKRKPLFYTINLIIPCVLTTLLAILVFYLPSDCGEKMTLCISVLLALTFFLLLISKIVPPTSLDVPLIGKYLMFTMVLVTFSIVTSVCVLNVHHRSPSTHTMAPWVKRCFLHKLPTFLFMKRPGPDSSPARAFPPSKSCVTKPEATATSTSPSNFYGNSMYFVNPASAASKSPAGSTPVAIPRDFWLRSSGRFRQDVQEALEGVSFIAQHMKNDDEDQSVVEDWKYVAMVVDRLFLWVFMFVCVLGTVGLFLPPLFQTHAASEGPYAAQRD
# T1 sequence (P32297 whole entry): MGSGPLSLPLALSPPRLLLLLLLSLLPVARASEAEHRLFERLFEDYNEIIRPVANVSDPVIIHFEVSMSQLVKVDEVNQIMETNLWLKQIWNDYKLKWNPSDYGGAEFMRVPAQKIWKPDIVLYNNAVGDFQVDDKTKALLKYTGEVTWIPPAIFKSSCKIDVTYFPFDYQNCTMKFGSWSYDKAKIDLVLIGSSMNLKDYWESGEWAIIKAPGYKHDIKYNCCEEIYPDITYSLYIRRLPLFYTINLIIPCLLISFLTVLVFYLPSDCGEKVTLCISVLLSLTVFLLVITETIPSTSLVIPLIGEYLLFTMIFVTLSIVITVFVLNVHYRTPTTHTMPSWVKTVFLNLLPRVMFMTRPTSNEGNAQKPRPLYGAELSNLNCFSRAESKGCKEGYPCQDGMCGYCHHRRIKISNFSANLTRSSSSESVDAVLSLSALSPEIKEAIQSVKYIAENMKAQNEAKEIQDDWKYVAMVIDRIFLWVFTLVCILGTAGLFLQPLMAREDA
# Chain of Acetylcholine receptor; alpha1/beta1/delta/gamma (P02708 whole entry): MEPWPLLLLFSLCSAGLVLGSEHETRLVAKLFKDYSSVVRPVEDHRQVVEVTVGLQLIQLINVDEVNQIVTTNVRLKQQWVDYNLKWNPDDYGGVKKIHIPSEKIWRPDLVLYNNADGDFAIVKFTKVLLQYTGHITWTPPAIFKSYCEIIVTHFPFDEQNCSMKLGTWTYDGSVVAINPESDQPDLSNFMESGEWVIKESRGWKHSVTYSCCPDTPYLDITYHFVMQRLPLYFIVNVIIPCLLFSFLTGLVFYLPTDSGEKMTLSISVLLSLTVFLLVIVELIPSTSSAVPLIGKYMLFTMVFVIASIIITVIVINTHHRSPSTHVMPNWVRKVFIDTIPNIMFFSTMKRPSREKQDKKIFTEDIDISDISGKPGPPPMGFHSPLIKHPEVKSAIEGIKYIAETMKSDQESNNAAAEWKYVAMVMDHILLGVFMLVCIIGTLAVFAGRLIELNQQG
# Chain of Acetylcholine receptor; alpha1/beta1/delta/gamma (P07510 whole entry): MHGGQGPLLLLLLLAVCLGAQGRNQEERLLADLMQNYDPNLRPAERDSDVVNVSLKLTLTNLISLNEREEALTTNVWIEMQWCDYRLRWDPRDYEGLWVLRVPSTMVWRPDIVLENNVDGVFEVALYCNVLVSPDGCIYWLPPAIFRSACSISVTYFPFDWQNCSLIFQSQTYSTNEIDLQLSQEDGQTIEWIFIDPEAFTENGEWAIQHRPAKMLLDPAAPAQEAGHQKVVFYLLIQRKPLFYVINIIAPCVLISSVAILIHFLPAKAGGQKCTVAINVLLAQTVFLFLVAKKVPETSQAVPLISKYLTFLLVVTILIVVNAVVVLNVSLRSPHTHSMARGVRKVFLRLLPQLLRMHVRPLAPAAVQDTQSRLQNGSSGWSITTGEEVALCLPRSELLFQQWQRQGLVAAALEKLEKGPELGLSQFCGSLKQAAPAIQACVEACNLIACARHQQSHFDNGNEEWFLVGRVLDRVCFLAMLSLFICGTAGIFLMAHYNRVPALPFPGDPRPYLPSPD
# Chain of Acetylcholine receptor; alpha1/beta1/delta/gamma (P11230 whole entry): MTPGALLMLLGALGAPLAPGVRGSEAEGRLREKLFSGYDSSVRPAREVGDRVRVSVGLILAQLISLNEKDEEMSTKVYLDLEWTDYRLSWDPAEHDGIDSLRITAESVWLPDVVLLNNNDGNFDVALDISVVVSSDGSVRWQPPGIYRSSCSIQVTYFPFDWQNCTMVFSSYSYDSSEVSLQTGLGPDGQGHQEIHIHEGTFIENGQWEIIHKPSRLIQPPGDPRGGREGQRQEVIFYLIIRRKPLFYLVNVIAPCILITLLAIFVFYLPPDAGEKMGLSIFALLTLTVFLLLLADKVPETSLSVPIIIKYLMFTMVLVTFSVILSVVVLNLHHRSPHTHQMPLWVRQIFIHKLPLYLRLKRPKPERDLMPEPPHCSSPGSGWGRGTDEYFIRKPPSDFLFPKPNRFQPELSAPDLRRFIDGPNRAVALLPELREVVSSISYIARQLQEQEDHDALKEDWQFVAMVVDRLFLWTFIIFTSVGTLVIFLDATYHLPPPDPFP
# Chain of Acetylcholine receptor; alpha1/beta1/delta/gamma (Q07001 whole entry): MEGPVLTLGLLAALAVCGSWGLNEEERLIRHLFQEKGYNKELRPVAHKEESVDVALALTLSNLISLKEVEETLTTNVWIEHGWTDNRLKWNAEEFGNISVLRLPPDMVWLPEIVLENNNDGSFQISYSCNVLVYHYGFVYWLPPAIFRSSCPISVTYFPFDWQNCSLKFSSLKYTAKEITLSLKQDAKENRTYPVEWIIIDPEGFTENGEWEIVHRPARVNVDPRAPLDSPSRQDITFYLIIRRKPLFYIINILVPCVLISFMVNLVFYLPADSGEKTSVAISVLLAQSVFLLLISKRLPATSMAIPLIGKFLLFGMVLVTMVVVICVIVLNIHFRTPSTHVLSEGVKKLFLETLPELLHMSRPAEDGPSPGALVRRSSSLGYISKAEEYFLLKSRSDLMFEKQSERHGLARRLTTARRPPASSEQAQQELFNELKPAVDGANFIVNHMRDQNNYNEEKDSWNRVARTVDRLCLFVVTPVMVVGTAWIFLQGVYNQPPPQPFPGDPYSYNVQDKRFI
# Chain of Neuronal acetylcholine receptor; alpha4/beta2 (P17787 whole entry): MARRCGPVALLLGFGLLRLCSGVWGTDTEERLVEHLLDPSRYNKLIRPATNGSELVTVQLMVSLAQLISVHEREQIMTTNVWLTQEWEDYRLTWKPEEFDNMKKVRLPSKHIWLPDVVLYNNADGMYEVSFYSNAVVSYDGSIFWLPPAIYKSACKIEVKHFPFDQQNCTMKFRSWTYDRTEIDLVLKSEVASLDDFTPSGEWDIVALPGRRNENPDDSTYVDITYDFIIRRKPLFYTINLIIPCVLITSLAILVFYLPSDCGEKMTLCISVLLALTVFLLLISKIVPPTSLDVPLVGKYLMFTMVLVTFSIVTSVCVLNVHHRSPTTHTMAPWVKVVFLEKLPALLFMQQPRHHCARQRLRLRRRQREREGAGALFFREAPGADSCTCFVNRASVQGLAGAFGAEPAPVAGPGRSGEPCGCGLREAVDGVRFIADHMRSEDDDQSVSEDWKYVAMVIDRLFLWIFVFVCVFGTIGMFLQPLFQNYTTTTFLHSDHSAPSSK
# Chain of Neuronal acetylcholine receptor; alpha4/beta2 (P43681 whole entry): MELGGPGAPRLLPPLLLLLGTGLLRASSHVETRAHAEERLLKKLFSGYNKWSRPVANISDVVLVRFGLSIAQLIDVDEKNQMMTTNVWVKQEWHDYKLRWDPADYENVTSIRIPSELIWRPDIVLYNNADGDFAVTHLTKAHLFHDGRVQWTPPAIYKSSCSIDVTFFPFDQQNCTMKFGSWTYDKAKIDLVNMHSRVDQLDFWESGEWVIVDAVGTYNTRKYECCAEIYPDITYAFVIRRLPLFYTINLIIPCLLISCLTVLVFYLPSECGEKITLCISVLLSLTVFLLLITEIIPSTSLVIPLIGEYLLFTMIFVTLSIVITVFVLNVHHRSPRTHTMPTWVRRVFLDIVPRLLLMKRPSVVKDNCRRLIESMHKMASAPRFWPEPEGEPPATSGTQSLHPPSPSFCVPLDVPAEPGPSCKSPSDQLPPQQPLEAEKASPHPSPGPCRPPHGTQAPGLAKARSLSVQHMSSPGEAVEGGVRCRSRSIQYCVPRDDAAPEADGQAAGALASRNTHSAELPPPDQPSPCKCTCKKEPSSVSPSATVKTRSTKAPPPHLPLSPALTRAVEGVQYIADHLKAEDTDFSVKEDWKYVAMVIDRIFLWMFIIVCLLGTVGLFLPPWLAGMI
SMILES,Ki ([1]; hek293),Ki ([2]; read-out: Ki) [µM],Ki [3] [µM],Ki [4] [µM],Efficacy [5] [%],Ki [6] [µM],EC50 [8] [µM],Ki [9] [µM],"EC50 [11, 17] [µM]",Efficacy [12] [%],efflux ratio [13],Papp A→B [14] [×10⁻⁶ cm/s],further results
Cl.c1cncc(-c2ccccc2O[C@H]2C[C@@H]3CNC[C@H]2C3)c1,Not Active,> 0.832,0.00215,1.02,35,0.00121,< 0.1,3.3,,,,,Ratio (MDCK [7]): 1.65; Papp (MDCK [10]): 28.7 ×10⁻⁶ cm/s
c1cncc(-c2ccccc2O[C@@H]2C[C@H]3CNC[C@@H]2C3)c1,,> 0.614,0.0785,,,0.0169,,,0.126,46,,,
Cl.Oc1cncc(-c2ccccc2O[C@H]2C[C@@H]3CNC[C@H]2C3)c1,Not Active,0.252,0.000177,1.68,230,0.000748,0.00299,> 13.5,,,,,"EC50 ([11]; hek293, read-out: EC50): 0.279 µM; Ratio (MDCK [7]): 5.02; Papp (MDCK [10]): 3.36 ×10⁻⁶ cm/s"
Cl.Oc1cncc(-c2ccccc2O[C@@H]2C[C@H]3CNC[C@@H]2C3)c1,Not Active,0.149,0.00716,8.32,70,0.00202,0.0344,> 15,,52,3.5,2.66,
CS(=O)(=O)Nc1cncc(-c2ccccc2O[C@H]2C[C@@H]3CNC[C@H]2C3)c1.Cl,Not Active,0.336,0.000168,11.7,148,0.000158,0.00306,4.78,,,4.38,1.17,"EC50 ([11]; hek293, read-out: EC50): 0.00327 µM; minimal effective dose (Mus musculus [15]): 3.2 mg/kg; ED50 (Mus musculus [16]; read-out: ID50 (the source's name)): 0.66 mg/kg; minimal effective dose (Mus musculus [16]; read-out: MED): 0.1 mg/kg"
CS(=O)(=O)Nc1cncc(-c2ccccc2O[C@@H]2C[C@H]3CNC[C@@H]2C3)c1.Cl,Not Active,2.9,0.00373,> 15,182,0.00133,0.00292,> 15,0.00227,122,4.65,0.84,
CS(=O)(=O)Nc1cncc(-c2ccccc2O[C@H]2C[C@@H]3CNC[C@H]2C3)c1,,,,,,,,,,120,,,
Oc1cncc(-c2ccccc2O[C@H]2C[C@@H]3CNC[C@H]2C3)c1,,,,,,,,,,118,,,
Cl.c1cncc(-c2ccccc2O[C@H]2C[C@@H]3CNC[C@H]2C3)c1 (racemic),,> 1.31,0.0038,,32.5,0.0013,0.057,,0.053,,1.75,30.3,Ki ([1]; read-out: Ki): 2.16 µM
COc1ccncc1-c1ccccc1O[C@H]1C[C@@H]2CNC[C@H]1C2.Cl (racemic),,0.477,0.00177,,23,0.000882,< 0.1,,> 30,49,,,
COc1cncc(-c2ccccc2O[C@H]2C[C@@H]3CNC[C@H]2C3)c1.Cl (racemic),Not Active,> 0.309,0.00901,,<20,0.0941,0.0327,,0.0289,11,1.76,24.4,
Cl.Oc1ccncc1-c1ccccc1O[C@H]1C[C@@H]2CNC[C@H]1C2 (racemic),,> 0.419,0.00315,> 15.3,91,0.0021,0.0163,> 15,0.005,82,,,
Cl.Oc1cncc(-c2ccccc2O[C@H]2C[C@@H]3CNC[C@H]2C3)c1 (racemic),,0.255,0.000425,5,75,0.000186,0.00259,1.58,,,5.84,4.05,"Ki ([1]; read-out: Ki): 1.58 µM; EC50 ([11]; hek293, read-out: EC50): 0.0043 µM"
Cl.Fc1ccncc1-c1ccccc1O[C@H]1C[C@@H]2CNC[C@H]1C2 (racemic),,,0.00133,,,0.000856,0.197,,0.625,65,1.26,13.3,
Cl.Fc1cncc(-c2ccccc2O[C@H]2C[C@@H]3CNC[C@H]2C3)c1 (racemic),Not Active,> 1.5,0.0101,> 16.9,45,0.00217,0.316,> 13.5,0.248,84.5,1.29,10,
Cl.Nc1ccncc1-c1ccccc1O[C@H]1C[C@@H]2CNC[C@H]1C2 (racemic),,> 1.04,0.00205,4.43,61,0.000957,0.0336,,0.265,97,,,
Cl.Nc1cncc(-c2ccccc2O[C@H]2C[C@@H]3CNC[C@H]2C3)c1 (racemic),,> 0.575,0.00583,> 15,107,0.00148,0.0339,> 15,0.0644,80.5,,,
CS(=O)(=O)Nc1ccncc1-c1ccccc1O[C@H]1C[C@@H]2CNC[C@H]1C2.Cl (racemic),,0.25,0.00521,> 15,48,0.000382,0.112,7.59,0.0043,117,,,
CS(=O)(=O)Nc1cncc(-c2ccccc2O[C@H]2C[C@@H]3CNC[C@H]2C3)c1.Cl (racemic),,> 0.424,0.000241,> 13.5,230,0.000243,0.00299,4.75,0.00315,,,,
CCS(=O)(=O)Nc1cncc(-c2ccccc2O[C@H]2C[C@@H]3CNC[C@H]2C3)c1.Cl (racemic),Not Active,> 0.604,0.000313,> 15,182,0.000149,0.00109,9.87,0.00037,108,0.93,0.44,
CC(C)S(=O)(=O)Nc1cncc(-c2ccccc2O[C@H]2C[C@@H]3CNC[C@H]2C3)c1.Cl (racemic),Not Active,0.745,0.000202,4.24,160,0.000126,0.00016,14.6,0.0985,57,1.49,0.56,
CC(=O)Nc1cncc(-c2ccccc2O[C@H]2C[C@@H]3CNC[C@H]2C3)c1.Cl (racemic),,> 0.615,0.0171,0.53,51,0.00953,0.252,> 15,0.0354,100,,,
CS(=O)(=O)Nc1cncc(-c2ccccc2O[C@H]2C[C@@H]3CNC[C@H]2C3)c1 (racemic),,,,,,,,,,116,,,
Oc1cncc(-c2ccccc2O[C@H]2C[C@@H]3CNC[C@H]2C3)c1 (racemic),,,,,,,,,,117,,,
c1cncc(-c2ccccc2O[C@H]2C[C@@H]3CNC[C@H]2C3)c1 (racemic),,,,,,,,,,45,,,
Cl.NC(=O)c1cncc(-c2ccccc2O[C@H]2C[C@@H]3CNC[C@H]2C3)c1 (stereo in doubt),,> 0.963,0.0125,> 15,59.5,0.00379,0.0368,> 15,,102,,,EC50 ([11]; hek293): Not Active
NC(=O)c1cncc(-c2ccccc2O[C@@H]2C[C@H]3CNC[C@@H]2C3)c1 (stereo in doubt),,,1.13,,,0.496,,,,,,,Ki ([2]; hek293): Not Active
CN1CCC[C@H]1c1cccnc1 [NICOTINE],,,0.168,1.48,,,,,,,,,
c1cnc2cc3c(cc2n1)[C@@H]1CNC[C@H]3C1 [VARENICLINE],,,0.089,8.2,,,,,,,,,
